Measurements taken from PubChem BioAssay AID248 (DTP/NCI, 2004).
Where “and” joins values, the source holds several entries; their conditions need not be identical. Identical values can stand only once. Toxic doses and inconclusive results are not listed. Cut-off read from the data, not from the text of the source: active = T/C of 150% or more; inactive = T/C below 125%.

Tested on: L1210 leukemia ip in BDF1 mice, survival T/C
Experiment: NCI In Vivo Anticancer Drug Screen. Data for tumor model L1210 Leukemia (intraperitoneal) in B6D2F1 (BDF1) mice
Details: endpoint: mean survival time, higher = longer survival
In short: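 Tumor was transplanted into mice, which were then dosed with test compound or vehicle alone. Survival was recorded for each group, and the treated figure was expressed relative to the control figure.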

[1] = dose: 100.0 mg/kg/injection, schedule: Q01DX009 (ip), vehicle: Klucel (hydroxypropylcellulose) (HPC)
[2] = dose: 100.0 mg/kg/injection, schedule: Q04DX002 (ip), vehicle: Klucel (hydroxypropylcellulose) (HPC)
[3] = dose: 200.0 mg/kg/injection, schedule: Q04DX002 (ip), vehicle: Klucel (hydroxypropylcellulose) (HPC)
[4] = dose: 400.0 mg/kg/injection, schedule: Q04DX002 (ip), vehicle: Klucel (hydroxypropylcellulose) (HPC)
[5] = dose: 100.0 mg/kg/injection, schedule: Q01DX001 (ip), vehicle: saline with Tween-80
[6] = dose: 200.0 mg/kg/injection, schedule: Q01DX001 (ip), vehicle: saline with Tween-80
[7] = dose: 400.0 mg/kg/injection, schedule: Q01DX001 (ip), vehicle: saline with Tween-80
[8] = dose: 100.0 mg/kg/injection, schedule: Q01DX009 (ip), vehicle: saline with Tween-80
[9] = dose: 200.0 mg/kg/injection, schedule: Q01DX009 (ip), vehicle: saline with Tween-80
[10] = dose: 400.0 mg/kg/injection, schedule: Q01DX009 (ip), vehicle: saline with Tween-80
[11] = dose: 50.0 mg/kg/injection, schedule: Q01DX009 (ip), vehicle: saline with Tween-80
[12] = dose: 50.0 mg/kg/injection, schedule: Q04DX003 (ip), vehicle: saline
[13] = dose: 100.0 mg/kg/injection, schedule: Q04DX003 (ip), vehicle: saline
[14] = dose: 100.0 mg/kg/injection, schedule: Q01DX001 (ip), vehicle: saline
[15] = dose: 100.0 mg/kg/injection, schedule: Q04DX003 (ip), vehicle: saline with Tween-80
[16] = dose: 200.0 mg/kg/injection, schedule: Q04DX003 (ip), vehicle: saline with Tween-80
[17] = dose: 400.0 mg/kg/injection, schedule: Q04DX003 (ip), vehicle: saline with Tween-80
[18] = dose: 100.0 mg/kg/injection, schedule: Q04DX003 (ip), vehicle: Klucel (hydroxypropylcellulose) (HPC)
[19] = dose: 200.0 mg/kg/injection, schedule: Q04DX003 (ip), vehicle: Klucel (hydroxypropylcellulose) (HPC)
[20] = dose: 400.0 mg/kg/injection, schedule: Q04DX003 (ip), vehicle: Klucel (hydroxypropylcellulose) (HPC)

Measured: T/C

CCCCCCCCSC(=O)N(C(C)C)C(C)C
inactive: dose: 50.0 mg/kg/injection, schedule: Q04DX002 (ip), vehicle: saline 100 % of control | dose: 100.0 mg/kg/injection, schedule: Q04DX002 (ip), vehicle: saline 100 % of control and 105 % of control | dose: 200.0 mg/kg/injection, schedule: Q04DX002 (ip), vehicle: saline 100 % of control | dose: 400.0 mg/kg/injection, schedule: Q04DX002 (ip), vehicle: saline 108 % of control and 86 % of control

CCOC(=O)c1ccc(NC(=O)NCCCCCCNC(=O)Nc2ccc(C(=O)OCC)cc2)cc1
inactive: [1] 90 % of control | dose: 200.0 mg/kg/injection, schedule: Q01DX009 (ip), vehicle: Klucel (hydroxypropylcellulose) (HPC) 100 % of control | dose: 400.0 mg/kg/injection, schedule: Q01DX009 (ip), vehicle: Klucel (hydroxypropylcellulose) (HPC) 100 % of control

Cc1ccc2c(=O)n(C)c(=O)n(C)c2n1
inactive: [2] 106 % of control | [3] 106 % of control | [4] 106 % of control

O=C(O)c1ccccc1Oc1ccccc1
inactive: [5] 94 % of control | [6] 91 % of control | [7] 91 % of control

CCN(CC)C(C)C(=O)c1ccc2cc(Br)c3ccccc3c2c1 (stereo unspecified)
inactive: dose: 222.0 mg/kg/injection, schedule: Q01DX Z (ip), vehicle: methylcellulose (MC) 97 % of control | dose: 333.0 mg/kg/injection, schedule: Q01DX Z (ip), vehicle: methylcellulose (MC) 104 % of control | dose: 500.0 mg/kg/injection, schedule: Q01DX Z (ip), vehicle: methylcellulose (MC) 87 % of control

O=C(O)c1cccc(Br)c1
inactive: [2] 102 % of control | [3] 98 % of control | [4] 102 % of control

COC1OC(COC(c2ccccc2)(c2ccccc2)c2ccccc2)C(O)C(O)C1NC(C)=O (stereo unspecified)
inactive: dose: 100.0 mg/kg/injection, schedule: Q01DX001 (ip), vehicle: Klucel (hydroxypropylcellulose) (HPC) 96 % of control | dose: 200.0 mg/kg/injection, schedule: Q01DX001 (ip), vehicle: Klucel (hydroxypropylcellulose) (HPC) 96 % of control | dose: 400.0 mg/kg/injection, schedule: Q01DX001 (ip), vehicle: Klucel (hydroxypropylcellulose) (HPC) 101 % of control

CCCCCCCCCCCC(=O)NC(=O)N1CCOCC1
inactive: [5] 101 % of control | [8] 97 % of control | [6] 101 % of control | [9] 98 % of control | [7] 94 % of control | [10] 93 % of control

CC(=O)Nc1cc(C/C(N)=N/O)cc(NC(C)=O)c1
inactive: [8] 97 % of control | [9] 92 % of control | [10] 100 % of control

CCCCCCC1=NC(C)(C)CO1
inactive: dose: 25.0 mg/kg/injection, schedule: Q01DX009 (ip), vehicle: saline with Tween-80 102 % of control | [11] 97 % of control | [12] 99 % of control | [8] 102 % of control | [13] 97 % of control | [9] 102 % of control | dose: 200.0 mg/kg/injection, schedule: Q04DX003 (ip), vehicle: saline 91 % of control

FC(F)(F)C(Cl)Br (stereo unspecified)
inactive: dose: 25.0 mg/kg/injection, schedule: Q04DX003 (ip), vehicle: saline 106 % of control | [12] 104 % of control | [14] 101 % of control | [15] 98 % of control | [13] 97 % of control | dose: 150.0 mg/kg/injection, schedule: Q04DX003 (ip), vehicle: saline 98 % of control | [16] 97 % of control | dose: 225.0 mg/kg/injection, schedule: Q04DX003 (ip), vehicle: saline 101 % of control | dose: 335.0 mg/kg/injection, schedule: Q04DX003 (ip), vehicle: saline 96 % of control | [17] 106 % of control | dose: 1000.0 mg/kg/injection, schedule: Q05DX002 (ip), vehicle: water 97 % of control | dose: 2000.0 mg/kg/injection, schedule: Q05DX002 (ip), vehicle: water 108 % of control

CCC(Sc1ccccc1[N+](=O)[O-])[N+](=O)[O-] (stereo unspecified)
inactive: [18] 105 % of control | [19] 95 % of control | [20] 100 % of control

CC(C)(C)CC(C)(C)O
inactive: [14] 102 % of control | dose: 200.0 mg/kg/injection, schedule: Q01DX001 (ip), vehicle: saline 102 % of control | dose: 400.0 mg/kg/injection, schedule: Q01DX001 (ip), vehicle: saline 96 % of control

O=c1ccc2c(c1)oc1cccc3c(=O)c4ccccc4c2c13
inactive: [11] 97 % of control | [8] 101 % of control

Cc1ccc(S(=O)(=O)OCC2COC(C(Cl)(Cl)Cl)O2)cc1 (stereo unspecified)
inactive: [8] 94 % of control | [15] 106 % of control | [9] 92 % of control | [16] 113 % of control | [10] 94 % of control | [17] 110 % of control

O=C(Nc1ccc2c(c1)C(S)c1ccccc1-2)C(F)(F)F (stereo unspecified)
inactive: dose: 100.0 mg/kg/injection, schedule: Q01DX001 (ip), vehicle: carboxymethylcellulose (CMC) 96 % of control | dose: 200.0 mg/kg/injection, schedule: Q01DX001 (ip), vehicle: carboxymethylcellulose (CMC) 101 % of control | dose: 400.0 mg/kg/injection, schedule: Q01DX001 (ip), vehicle: carboxymethylcellulose (CMC) 95 % of control

CCCCCCCCN(C)/N=N/c1nc[nH]c1C(N)=O
inactive: [1] 113 % of control

CCOC(=O)/C(=C\c1ccccc1)P(=O)(OCC)c1ccccc1 (stereo unspecified)
inactive: dose: 25.0 mg/kg/injection, schedule: Q01DX009 (ip), vehicle: Klucel (hydroxypropylcellulose) (HPC) 91 % of control | dose: 50.0 mg/kg/injection, schedule: Q01DX009 (ip), vehicle: Klucel (hydroxypropylcellulose) (HPC) 92 % of control | [1] 96 % of control | [18] 95 % of control | [19] 96 % of control

COC1CN(C)C(=Nc2cccc3ccccc23)S1 (stereo unspecified)
inactive: dose: 100.0 mg/kg/injection, schedule: Q01DX009 (ip), vehicle: other 100 % of control | dose: 100.0 mg/kg/injection, schedule: Q04DX003 (ip), vehicle: other 103 % of control | dose: 200.0 mg/kg/injection, schedule: Q01DX009 (ip), vehicle: other 94 % of control | dose: 200.0 mg/kg/injection, schedule: Q04DX003 (ip), vehicle: other 95 % of control | dose: 400.0 mg/kg/injection, schedule: Q01DX009 (ip), vehicle: other 97 % of control | dose: 400.0 mg/kg/injection, schedule: Q04DX003 (ip), vehicle: other 92 % of control

C/C([O-])=C(/c1nc(-c2ccc([N+](=O)[O-])o2)no1)[n+]1cc(C)ccc1C
inactive: [2] 95 % of control | [3] 91 % of control | [4] 87 % of control

CCOC(=O)C12CCC(C(=O)OCC)(CC1=O)C(=O)C2
inactive: dose: 100.0 mg/kg/injection, schedule: Q04DX002 (ip), vehicle: saline with Tween-80 88 % of control | dose: 200.0 mg/kg/injection, schedule: Q04DX002 (ip), vehicle: saline with Tween-80 95 % of control | dose: 400.0 mg/kg/injection, schedule: Q04DX002 (ip), vehicle: saline with Tween-80 98 % of control

c1cc2c(c(OCC3=NCCN3)c1)CCC2
inactive: dose: 10.0 mg/kg/injection, schedule: Q01DX009 (ip), vehicle: Klucel (hydroxypropylcellulose) (HPC) 107 % of control | dose: 20.0 mg/kg/injection, schedule: Q01DX009 (ip), vehicle: Klucel (hydroxypropylcellulose) (HPC) 105 % of control | dose: 40.0 mg/kg/injection, schedule: Q01DX009 (ip), vehicle: Klucel (hydroxypropylcellulose) (HPC) 93 % of control

CCC(=N\O)/C(C)=N/O
inactive: [18] 103 % of control | [19] 103 % of control | [20] 100 % of control

O=C1CCCC/C1=C1/C(=O)Nc2ccccc21
inactive: [11] 104 % of control | [8] 118 % of control | [9] 110 % of control

COC1OC(COS(=O)(=O)c2ccc(C)cc2)C(OC(=O)c2ccccc2)C(OC(=O)c2ccccc2)C1OS(=O)(=O)c1ccc(C)cc1 (stereo unspecified)
inactive: dose: 25.0 mg/kg/injection, schedule: Q04DX002 (ip), vehicle: Klucel (hydroxypropylcellulose) (HPC) 88 % of control | dose: 50.0 mg/kg/injection, schedule: Q04DX002 (ip), vehicle: Klucel (hydroxypropylcellulose) (HPC) 95 % of control | [2] 88 % of control | [3] 109 % of control and 88 % of control | [4] 109 % of control

O=C1NC(=S)S/C1=C\c1ccc([N+](=O)[O-])s1
inactive: [2] 90 % of control | [3] 93 % of control
